Test [1] can be described thus: Binding affinity towards dopamine receptor D3 was determined. Also noted: species or system Homo sapiens.
Test [2] can be described thus: Binding affinity towards dopamine receptor D4 was determined. Also noted: species or system Homo sapiens.
A short description of test [3]: Binding affinity towards dopamine receptor D2 was determined. Further details: species or system Homo sapiens.
Test [4] is described as follows: Binding affinity of compound towards dopamine receptor D2 was determined. Further details: species or system Homo sapiens.
For test [5], the target named is Sodium-dependent dopamine transporter (Homo sapiens, UniProt Q01959). In words: Ability of compound to inhibit dopamine uptake of receptor was determined. The settings on record: read-out: Log 1/Ki (converted).
A further test has as its target D(2) dopamine receptor (Homo sapiens, UniProt P14416).
The target in the next test is T1, D(4) dopamine receptor (Homo sapiens, UniProt P21917).
T1 sequence (P21917 whole entry): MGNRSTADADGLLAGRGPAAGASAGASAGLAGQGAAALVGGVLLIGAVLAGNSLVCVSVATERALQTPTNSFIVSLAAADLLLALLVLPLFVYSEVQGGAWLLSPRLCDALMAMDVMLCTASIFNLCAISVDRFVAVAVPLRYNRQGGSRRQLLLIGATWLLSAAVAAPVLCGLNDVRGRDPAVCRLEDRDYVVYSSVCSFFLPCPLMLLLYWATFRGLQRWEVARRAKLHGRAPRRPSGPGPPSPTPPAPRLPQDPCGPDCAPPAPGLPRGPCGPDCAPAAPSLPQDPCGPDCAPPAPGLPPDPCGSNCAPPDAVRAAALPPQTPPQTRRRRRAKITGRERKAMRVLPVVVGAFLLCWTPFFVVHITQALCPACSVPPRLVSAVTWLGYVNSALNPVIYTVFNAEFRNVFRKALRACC
In words: biochemical.

A short description of test [6]: Binding affinity to displace [3H]spiperone from dopamine receptor D2 was determined. Also noted: species or system Homo sapiens.
Test [7] is described as follows: Binding affinity of compound towards dopamine receptor D3 was determined. Also noted: species or system Homo sapiens.

Chain of Sodium-dependent dopamine transporter (Q01959 whole entry): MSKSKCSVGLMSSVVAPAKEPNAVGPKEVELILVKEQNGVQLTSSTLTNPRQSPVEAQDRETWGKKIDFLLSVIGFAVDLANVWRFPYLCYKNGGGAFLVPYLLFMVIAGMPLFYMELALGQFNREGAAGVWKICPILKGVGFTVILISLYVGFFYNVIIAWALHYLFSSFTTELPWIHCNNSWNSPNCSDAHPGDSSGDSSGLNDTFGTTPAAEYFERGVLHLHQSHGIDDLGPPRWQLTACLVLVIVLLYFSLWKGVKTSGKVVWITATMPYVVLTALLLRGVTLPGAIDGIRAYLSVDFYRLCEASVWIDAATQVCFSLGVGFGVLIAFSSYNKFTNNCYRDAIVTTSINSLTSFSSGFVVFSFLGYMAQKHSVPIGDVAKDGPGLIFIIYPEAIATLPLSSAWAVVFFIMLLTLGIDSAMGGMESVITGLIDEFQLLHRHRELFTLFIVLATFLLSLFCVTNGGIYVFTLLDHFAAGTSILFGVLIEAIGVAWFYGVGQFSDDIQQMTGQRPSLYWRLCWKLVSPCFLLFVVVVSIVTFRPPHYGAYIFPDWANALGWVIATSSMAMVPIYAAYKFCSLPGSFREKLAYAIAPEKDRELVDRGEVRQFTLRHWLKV
Chain of D(2) dopamine receptor (P14416 whole entry): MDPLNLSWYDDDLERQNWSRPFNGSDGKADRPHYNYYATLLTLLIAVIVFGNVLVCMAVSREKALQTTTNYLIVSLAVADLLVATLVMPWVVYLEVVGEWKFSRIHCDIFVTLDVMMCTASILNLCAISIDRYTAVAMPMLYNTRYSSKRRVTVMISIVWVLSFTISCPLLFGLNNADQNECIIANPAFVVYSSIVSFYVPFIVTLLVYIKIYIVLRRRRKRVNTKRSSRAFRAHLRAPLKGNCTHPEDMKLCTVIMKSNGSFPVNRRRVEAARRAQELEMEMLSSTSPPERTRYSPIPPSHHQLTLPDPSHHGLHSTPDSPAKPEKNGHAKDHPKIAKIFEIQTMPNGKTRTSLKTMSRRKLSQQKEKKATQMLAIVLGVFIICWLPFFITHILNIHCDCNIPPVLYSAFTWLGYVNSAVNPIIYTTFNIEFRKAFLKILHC
Description for D(2) dopamine receptor: Binding affinity towards human dopamine receptor D2 was determined by using [3H]spiperone as radioligand
Description for D(4) dopamine receptor: Binding affinity towards human dopamine receptor D4 expressed in CHO cells was determined by using [3H]thymidine as radioligand

`O=C(CCCN1CCC(CCO)(c2ccc(Cl)cc2)C1)c1ccc(F)cc1` (stereo not given): the “Log 1/Ki” value in test [1] amounted to 7.49; in [2], 6.71; in test [3], 7.64.

Regarding `Cn1c2c(c(=O)n(C)c1=O)N1CC=C(NCCN3CCN(c4cccc(Cl)c4)CC3)NC1N2` (stereo not given), the “Log 1/Ki” value in test [4] came to 6.74.

As for `Cn1c(=O)c2c(nc3nc(NCCCN4CCN(c5ccccc5)CC4)ccn32)n(C)c1=O`, the “Log 1/Ki” value in test [4] is on record as 6.37.

Turning to `O=C(CCCN1CCC(CO)(c2ccc(Cl)cc2)CC1)c1ccc(F)cc1`, the “Log 1/Ki” value in test [1] is given as 6.96; in [2], 7.11; in test [3], 7.81.

For `O=C(NCCCCN1CCN(c2ccccc2)CC1)c1ccc(Br)cc1`, in test [1], the “Log Ki” value was -8.2.

On to `COc1ccccc1N1CCN(CCCNc2ccn3c(n2)nc2c3c(=O)n(C)c(=O)n2C)CC1`, for which the “Log 1/Ki” value in test [4] was found to be 5.93.

For `Fc1ccc(C(OC2CC3CCC(C2)N3CCOCc2ccccc2)c2ccc(F)cc2)cc1` (stereo not given), the Ki in [5] was 22.4 nM.

Regarding `COc1ccccc1N1CCN(CCNC2=C(Br)CN3c4c(n(C)c(=O)n(C)c4=O)NC3N2)CC1` (stereo not given), the “Log 1/Ki” value in test [4] is on record as 6.65.

Regarding `Cn1c(=O)c2c(nc3nc(NCCCN4CCN(c5cccc(Cl)c5)CC4)ccn32)n(C)c1=O`, the “Log 1/Ki” value in test [4] came out at 7.03.

Consider `O=C(NCN1CCN(c2ccccc2Cl)CC1)c1ccc(Cl)cc1`, for which the Ki is 66.1 nM at D(2) dopamine receptor and 8.32 nM at D(4) dopamine receptor.

Consider `O=C(NCN1CCN(c2ccccc2Cl)CC1)c1ccccc1`, for which the Ki on D(2) dopamine receptor is 178 nM; on D(4) dopamine receptor, 107 nM.

Regarding `CCN1CCCC1CNC(=O)c1c(O)c(CCF)cc(OC)c1OC` (stereo not given), in [6], the “Log 1/Ki” value stood at 9.11.

In the case of `Cn1c2c(c(=O)n(C)c1=O)N1CC(Br)=C(NCCN3CCN(c4ccccc4)CC3)NC1N2` (stereo not given), the “Log 1/Ki” value in test [4] is listed as 5.9.

On to `O=C(NCCN1C2CCC1CC(OC(c1ccc(F)cc1)c1ccc(F)cc1)C2)c1cccnc1` (stereo not given), for which, in test [5], the Ki is 14.1 nM.

As for `CCN1CCCC1CNC(=O)c1cc(CCCF)cc(OC)c1OC` (stereo not given), the “Log 1/Ki” value in test [6] was found to be 8.36.

For `CCN1CCCC1CNC(=O)c1cccc(OC)c1OC` (stereo not given), in [6], the “Log 1/Ki” value is recorded as 7.18.

Take `O=C(NCCN1C2CCC1CC(OC(c1ccc(F)cc1)c1ccc(F)cc1)C2)c1ccccc1` (stereo not given): the Ki in [5] was 6.46 nM.

Consider `Cc1ccc(C(=O)NCN2CCN(c3ccccc3Cl)CC2)cc1`, for which the Ki at D(2) dopamine receptor was 49 nM; at D(4) dopamine receptor, 219 nM.

In the case of `O=C(CCCN1CCC(c2ccc(Cl)cc2)CC1)c1ccc(F)cc1`, the “Log 1/Ki” value in [1] is 7.34; in test [2], 7.59; in test [3], 7.81.

For `N#Cc1ccccc1N1CCN(CNC(=O)c2ccc(Cl)cc2)CC1`, the Ki on D(2) dopamine receptor was 603 nM; on D(4) dopamine receptor, 3.89 nM.

Turning to `COc1ccccc1N1CCN(CCCCNC(=O)c2ccc(-c3ccc(C(C)=O)cc3)cc2)CC1`, in [1], the “Log Ki” value is reported as -9.5.

Consider `Fc1ccc(C(OC2CC3CCC(C2)N3CCOCCN2CCOCC2)c2ccc(F)cc2)cc1` (stereo not given), for which the Ki in test [5] is 661 nM.

`COc1ccccc1N1CCN(CNC(=O)c2cccc(C)c2)CC1`: the figures for the Ki on D(2) dopamine receptor and on D(4) dopamine receptor were 2450 nM and 12.9 nM, respectively.

`COc1ccccc1N1CCN(CCCNc2nc3nc4c(c(=O)n(C)c(=O)n4C)n3cc2Br)CC1`: in [4], the “Log 1/Ki” value came to 6.49.

For the molecule `COc1ccccc1N1CCN(CCCCNC(=O)c2ccc(Br)cc2)CC1`, the “Log Ki” value in test [1] was -9.3.

As to `Fc1ccc(C(OC2CC3CCC(C2)N3CCCOc2ccccc2)c2ccc(F)cc2)cc1` (stereo not given), the Ki in test [5] is 229 nM.

For the molecule `Cn1c(=O)c2c(nc3nc(NCCCN4CCN(c5ccccc5)CC4)c(Br)cn32)n(C)c1=O`, the “Log 1/Ki” value in test [4] is recorded as 6.38.

Regarding `Cc1ccc(C(=O)NCN2CCN(c3ccccc3C#N)CC2)cc1`, the Ki at D(2) dopamine receptor was 380 nM; on D(4) dopamine receptor, 1.2 nM.

Regarding `Cn1c2c(c(=O)n(C)c1=O)N1CC(Br)=C(NCCN3CCN(c4cccc(Cl)c4)CC3)NC1N2` (stereo not given), in test [4], the “Log 1/Ki” value was determined as 6.78.

`CCN1CCCC1CNC(=O)c1cc(Br)cc(OC)c1OC` (stereo not given): the “Log 1/Ki” value in [6] was determined as 9.12.

As to `Cn1c(=O)c2c(nc3nc(NCCCN4CCN(c5cccc(Cl)c5)CC4)c(Br)cn32)n(C)c1=O`, the “Log 1/Ki” value in test [4] worked out at 6.58.

Take `OCCOCCN1C2CCC1CC(OC(c1ccc(F)cc1)c1ccc(F)cc1)C2` (stereo not given): the Ki in [5] is 49 nM.

Molecule `O=C(NCN1CCN(c2ccccc2Cl)CC1)c1cccc(Cl)c1` had a Ki at D(2) dopamine receptor of 363 nM.

Turning to `COc1ccccc1N1CCN(CCCCNC(=O)c2ccc(-c3ccc(S(C)(=O)=O)cc3)cc2)CC1`, in test [1], the “Log Ki” value is recorded as -9.5.

Consider `Cc1ccc(CC2(O)CCN(CCCC(=O)c3ccc(F)cc3)CC2)cc1`, for which the figures for the “Log 1/Ki” value in test [1], in [2] and in test [3] were 8.05, 7.23 and 8.1, respectively.

In the case of `NCCN1[C@@H]2CC[C@H]1C[C@@H](OC(c1ccc(F)cc1)c1ccc(F)cc1)C2`, the Ki in test [5] is 25.7 nM.

In the case of `COc1ccccc1N1CCN(CNC(=O)c2ccc(C)cc2)CC1`, the Ki on D(2) dopamine receptor is 174 nM; on D(4) dopamine receptor it was 3.39 nM.

For `N#Cc1ccccc1N1CCN(CNC(=O)c2ccccc2)CC1`, the Ki at D(2) dopamine receptor was 3020 nM; at D(4) dopamine receptor, 24 nM.

In the case of `COc1ccccc1N1CCN(CNC(=O)c2ccc(Cl)cc2)CC1`, the Ki on D(2) dopamine receptor is 269 nM; at D(4) dopamine receptor, 3.47 nM.

Consider `Fc1ccc(C(OC2CC3CCC(C2)N3CCOCc2cccs2)c2ccc(F)cc2)cc1` (stereo not given), for which, in test [5], the Ki was 18.6 nM.

As to `O=C(CCCN1CCC(CO)(c2ccc(Cl)cc2)C1)c1ccc(F)cc1` (stereo not given), the “Log 1/Ki” value in test [1] was found to be 6.78; in test [2], 7.62; in test [3], 7.36.

`CCCc1cc(OC)c(OC)c(C(=O)NCC2CCCN2CC)c1` (stereo not given): the “Log 1/Ki” value in test [6] was determined as 8.16.

Take `CN1CCN(C2=Cn3c(/C=N/O)ccc3Sc3ccccc32)CC1`: the “Log 1/Ki” value in [7] is 5.37.

In the case of `COc1ccc(OC)c(N2CCN(CCCCNC(=O)c3ccc(Br)cc3)CC2)c1`, the “Log Ki” value in test [1] is on record as -8.5.

Consider `COc1ccccc1N1CCN(CCNC2=CCN3c4c(n(C)c(=O)n(C)c4=O)NC3N2)CC1` (stereo not given), for which, in [4], the “Log 1/Ki” value was determined as 5.88.

On to `N#Cc1ccccc1N1CCN(CNC(=O)c2cccc(Cl)c2)CC1`, for which the values for the Ki at D(2) dopamine receptor and on D(4) dopamine receptor were 2290 nM and 5.25 nM, respectively.

For the molecule `Fc1ccc(C(OC2CC3CCC(C2)N3CCNCc2ccccc2)c2ccc(F)cc2)cc1` (stereo not given), in test [5], the Ki was 8.13 nM.

As for `CN(CCCC(=O)c1ccc(F)cc1)CCC(O)c1ccc(Cl)cc1` (stereo not given), the “Log 1/Ki” value was found to be 6.79 in test [1], 6.72 in test [2] and 7.58 in test [3].

`COc1ccccc1N1CCN(CNC(=O)c2cccc(Cl)c2)CC1` gave a Ki on D(2) dopamine receptor of 1450 nM.

Regarding `CCN1CCCC1CNC(=O)c1cc(CCF)cc(OC)c1OC` (stereo not given), the “Log 1/Ki” value in test [6] stood at 8.28.

In the case of `COc1ccccc1N1CCN(CCCCNC(=O)c2ccc(-c3ccc(N)cc3)cc2)CC1`, the “Log Ki” value in test [1] was -9.7.

As to `CCN1CCCC1CNC(=O)c1c(O)c(CCCF)cc(OC)c1OC` (stereo not given), the “Log 1/Ki” value in test [6] was determined as 9.1.

For `Cc1cccc(C(=O)NCN2CCN(c3ccccc3Cl)CC2)c1`, the figures for the Ki at D(2) dopamine receptor and on D(4) dopamine receptor were 468 nM and 15.8 nM, respectively.

For the molecule `CCCc1cc(OC)c(OC)c(C(=O)NCC2CCCN2CC)c1O` (stereo not given), the “Log 1/Ki” value in [6] amounted to 8.89.

As for `O=C(CCN1[C@@H]2CC[C@H]1C[C@@H](OC(c1ccc(F)cc1)c1ccc(F)cc1)C2)Nc1ccccc1`, the Ki in [5] is 5.01 nM.

In the case of `COc1ccccc1N1CCN(CNC(=O)c2ccccc2)CC1`, the Ki is 2450 nM at D(2) dopamine receptor and 30.9 nM on D(4) dopamine receptor.

Source of the values: ChEMBL document CHEMBL1143544, “The role of QSAR in dopamine interactions” (Bioorg Med Chem Lett, 2005).
